Source: US20250154105A1, “POLYCYCLIC COMPOUND AND USE THEREOF” (TYK MEDICINES, INC., priority 2021, published 2025)

Legend:
[1] = test system: human pleural mesothelioma cells NCI-H226; experiment: Cell anti-proliferation experiment (CCK8), NCI-H226; type: cell-based
Summary of the method: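 Viability was measured by CCK-8 (3 h, A450) after 3-day treatment with 0.15–333.33 nM compound in 0.1% DMSO medium. Curve-fitted IC50 was based on viability normalised to no-drug and cell-free controls.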

YAP-TEAD = YAP-TEAD inhibitor activity by Nano luciferase method (8xGTiiC-nLuc reporter in 293T cells); type: cell-based; conditions: Homo sapiens, HEK-293T, 48 hours incubation, read-out: Nano-luciferase detection (IC50)
Summary of the method: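 293T cells transiently transfected with pGL3B-8xGTiiC-nLuc-CMV-fLuc, seeded 2000 cells/well, then treated 48 h at 37 °C with compounds in 1:3.16 dilution series (top 10,000 nM). Nano luciferase signal read after cell lysis; IC50 from percent of 0 nM control.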

| IC50 [1] [nM] | IC50 (YAP-TEAD) [nM] | SMILES |
| --- | --- | --- |
| ≤ 1000 | ≤ 1000 | C[C@H](NC(=O)c1cnc2c(c1)c1nscc1c(=O)n2-c1ccc(C(F)(F)F)cc1)c1cccc(N)n1 [Example T-409] |
| ≤ 1000 | 1000 to 5000 | Cc1c(-c2ccccc2)c(=O)n(-c2ccc(C(F)(F)F)cc2)c2ccc(C(=O)N[C@@H](C)c3ccccn3)cc12 [Example T-279] |
| ≤ 1000 | ≤ 1000 | CNS(=O)(=O)c1ccc2c(c1)-c1cn(C)nc1CN2c1ccc(C(F)(F)F)cc1 [Example T-19] |
| ≤ 1000 | ≤ 1000 | C[C@H](NC(=O)c1cnc2c(ccc(=O)n2-c2ccc(C(F)(F)F)cc2)c1)c1ccccn1 [Example T-456] |
| ≤ 1000 | ≤ 1000 | Cn1cc2c(=O)n(-c3ccc(C(F)(F)F)cc3)c3ccc(NS(=O)(=O)c4ccc(F)cc4)cc3c2n1 [Example T-187] |
| ≤ 1000 | ≤ 1000 | Cc1scc2c1c(=O)n(-c1ccc(C(F)(F)F)cc1)c1ccc(C(=O)N[C@@H](C)c3ccccn3)nc21 [Example T-386] |
| ≤ 1000 | ≤ 1000 | C[C@H](NC(=O)c1ccc2c(c1)c1ncoc1c(=O)n2-c1ccc(C(F)(F)F)cc1)c1ccccn1 [Example T-396] |
| ≤ 1000 | ≤ 1000 | Cn1cc2c(=O)n(-c3ccc(C(F)(F)F)cc3)c3ccc(NC(=O)N4CCCC4)cc3c2n1 [Example T-184] |
| ≤ 1000 | ≤ 1000 | C[C@H](NC(=O)c1ccc2c(c1)c1c(c(=O)n2-c2ccc(C(F)(F)F)cc2)CCCC1)c1cccc(N)n1 [Example T-428] |
| ≤ 1000 | ≤ 1000 | Cc1cc2cc(C(=O)N[C@@H](C)c3cccc(N)n3)ccc2n(-c2ccc(C(F)(F)F)cc2)c1=O [Example T-414] |
| ≤ 1000 | 1000 to 5000 | C[C@H](NC(=O)c1ccc2c(c1)c1ccc(F)cc1c(=O)n2-c1ccc(C(F)(F)F)cc1)c1ccccn1 [Example T-260] |
| 1000 to 5000 | 1000 to 5000 | Cc1scc2c1c(=O)n(-c1ccc(C(F)(F)F)cc1)c1ncc(C(=O)N[C@@H](C)c3ccccn3)cc21 [Example T-373] |
| ≤ 1000 | ≤ 1000 | Cc1c(C)c2cc(C(=O)N[C@@H](C)c3ccccn3)ccc2n(-c2ccc(C(F)(F)F)cc2)c1=O [Example T-436] |
| ≤ 1000 | ≤ 1000 | C[C@H](NC(=O)c1cnc2c(c1)c1ccccc1c(=O)n2-c1ccc(C(F)(F)F)cc1)c1ccccn1 [Example T-244] |
| 1000 to 5000 | 1000 to 5000 | Cc1ccc([C@H](C)NC(=O)c2ccc3c(c2)c2nn(C)cc2c(=O)n3-c2ccc(C(F)(F)F)cc2)nc1 [Example T-124] |
| ≤ 1000 | ≤ 1000 | CC1c2ccccc2-c2cc(C(=O)N[C@@H](C)c3ccccn3)ccc2N1c1ccc(C(F)(F)F)cc1 (stereo partly drawn) [Example T-281] |
| ≤ 1000 | ≤ 1000 | Cn1cc2c(=O)n(-c3ccc(C(F)(F)F)cc3)c3ccc(NC(=O)c4ccccc4)cc3c2n1 [Example T-171] |
| ≤ 1000 | ≤ 1000 | CNS(=O)(=O)c1ccc2c(c1)cc(C)c(=O)n2-c1ccc(C(F)(F)F)cc1 [Example T-421] |
| ≤ 1000 | ≤ 1000 | C[C@H](NC(=O)c1ccc2c(c1)c1c(c(=O)n2-c2ccc(C(F)(F)F)cc2)CCCC1(F)F)c1ccccn1 [Example T-306] |
| ≤ 1000 | ≤ 1000 | CC/C=C/C(=O)Nc1ccc2c(c1)c1nn(C)cc1c(=O)n2-c1ccc(C(F)(F)F)cc1 [Example T-234] |
| 1000 to 5000 | 1000 to 5000 | COC[C@@H](C)NC(=O)c1ccc2c(c1)c1cnccc1c(=O)n2-c1ccc(C(F)(F)F)cc1 [Example T-448] |
| ≤ 1000 | ≤ 1000 | C[C@H](NC(=O)c1cnc2c(c1)c1cc(F)ccc1c(=O)n2-c1ccc(C(F)(F)F)cc1)c1ccccn1 [Example T-407] |
| ≤ 1000 | ≤ 1000 | CNS(=O)(=O)c1ccc2c(c1)-c1ncn(C)c1CN2c1ccc(C(F)(F)F)cc1 [Example T-7] |
| ≤ 1000 | ≤ 1000 | Cc1occ2c(=O)n(-c3ccc(C(F)(F)F)cc3)c3ccc(C(=O)N[C@@H](C)c4ccccn4)cc3c12 [Example T-288] |

| IC50 [1] [nM] | IC50 (YAP-TEAD) [nM] | SMILES |
| --- | --- | --- |
| ≤ 1000 | ≤ 1000 | CNc1cccc([C@H](C)NC(=O)c2ccc3c(c2)c2nn(C)cc2c(=O)n3-c2ccc(C(F)(F)F)cc2)n1 [Example T-149] |
| ≤ 1000 | ≤ 1000 | Cc1cccc2c1c(=O)n(-c1ccc(C(F)(F)F)cc1)c1ccc(C(=O)N[C@@H](C)c3ccccn3)cc21 [Example T-257] |
| 1000 to 5000 | ≤ 1000 | C[C@H](NC(=O)c1ccc2c(c1)c1c(cnn1CC(F)(F)F)c(=O)n2-c1ccc(C(F)(F)F)cc1)c1ccccn1 [Example T-411] |
| ≤ 1000 | ≤ 1000 | C[C@H](NC(=O)c1ccc2c(c1)c1c(F)scc1c(=O)n2-c1ccc(C(F)(F)F)cc1)c1ccccn1 [Example T-298] |
| ≤ 1000 | ≤ 1000 | C[C@H](NC(=O)c1cnc2c(c1)c1nn(C)cc1c(=O)n2-c1ccc(C(F)(F)F)cc1)c1ccccn1 [Example T-243] |
| ≤ 1000 | ≤ 1000 | CNS(=O)(=O)c1ccc2c(c1)c1nn(C)cc1c(=O)n2-c1cccc(C(F)(F)F)c1 [Example T-58] |
| ≤ 1000 | ≤ 1000 | CNS(=O)(=O)c1ccc2c(c1)-c1nn(C)cc1CN2c1ccc(C(F)(F)F)cc1 [Example T-18] |
| ≤ 1000 | ≤ 1000 | CNS(=O)(=O)c1ccc2c(c1)-c1cn(C)nc1CCN2c1ccc(C(F)(F)F)cc1 [Example T-55] |
| 1000 to 5000 | 1000 to 5000 | Cc1scc2c(=O)n(-c3ccc(C(F)(F)F)cc3)c3ncc(C(=O)N[C@@H](C)c4ccccn4)cc3c12 [Example T-372] |
| 1000 to 5000 | 1000 to 5000 | CN(C)CCCNC(=O)c1ccc2c(c1)c1nn(C)cc1c(=O)n2-c1ccc(C(F)(F)F)cc1 [Example T-118] |
| ≤ 1000 | ≤ 1000 | CC(C)/C=C/C(=O)Nc1ccc2c(c1)c1nn(C)cc1c(=O)n2-c1ccc(C(F)(F)F)cc1 [Example T-233] |
| 1000 to 5000 | 1000 to 5000 | C[C@@H](C(=O)Nc1ccc2c(c1)c1nn(C)cc1c(=O)n2-c1ccc(C(F)(F)F)cc1)c1ccccn1 [Example T-168] |
| ≤ 1000 | ≤ 1000 | Cc1cc(=O)n(-c2ccc(C(F)(F)F)cc2)c2ccc(C(=O)N[C@@H](C)c3cccc(N)n3)cc12 [Example T-413] |
| ≤ 1000 | ≤ 1000 | CC(C)NC(=O)c1ccc2c(ccc(=O)n2-c2ccc(C(F)(F)F)cc2)c1 [Example T-3] |
| ≤ 1000 | ≤ 1000 | CNS(=O)(=O)c1ccc2c(c1)c1nn(C)cc1c(=O)n2-c1ccc(F)cc1 [Example T-65] |
| ≤ 1000 | ≤ 1000 | C[C@H](NC(=O)c1ccc2c(c1)c1csc(F)c1c(=O)n2-c1ccc(C(F)(F)F)cc1)c1ccccn1 [Example T-299] |
| ≤ 1000 | ≤ 1000 | CNS(=O)(=O)c1ccc2c(c1)c1ncn(CCO)c1c(=O)n2-c1ccc(C(F)(F)F)cc1 [Example T-46] |
| ≤ 1000 | ≤ 1000 | C[C@H](NC(=O)c1ccc2c(c1)c1cc(Cl)ccc1c(=O)n2-c1ccc(C(F)(F)F)cc1)c1ccccn1 [Example T-311] |
| ≤ 1000 | ≤ 1000 | C[C@H](NC(=O)c1ccc2c(c1)c1nn(C)cc1c(=O)n2Cc1ccccc1)c1ccccn1 [Example T-271] |
| ≤ 1000 | ≤ 1000 | C[C@H](NC(=O)c1ccc2c(c1)c1c(Cl)scc1c(=O)n2-c1ccc(C(F)(F)F)cc1)c1ccccn1 [Example T-301] |
| ≤ 1000 | ≤ 1000 | COc1cccc([C@H](C)NC(=O)c2ccc3c(c2)c2nn(C)cc2c(=O)n3-c2ccc(C(F)(F)F)cc2)n1 [Example T-134] |
| ≤ 1000 | ≤ 1000 | C[C@H](NC(=O)c1ccc2c(n1)c1cscc1c(=O)n2-c1ccc(C(F)(F)F)cc1)c1ccccn1 [Example T-384] |
| ≤ 1000 | ≤ 1000 | C[C@H](NC(=O)c1cnc2c(c1)c1cscc1c(=O)n2-c1ccc(C(F)(F)F)cc1)c1cccc(N)n1 [Example T-454] |
| 1000 to 5000 | 1000 to 5000 | C[C@H](NC(=O)c1ccc2c(c1)c1nn(C)cc1c(=O)n2-c1ccc(C(F)(F)F)cc1)c1cccnc1 [Example T-146] |
